Here are results for one compound from US10745352B2, “Dual function molecules for histone deacetylase inhibition and ataxia telangiectasia mutated activation and methods of use thereof” (Shuttle Pharmaceuticals, Inc., priority 2015, dated 2020).

The subject of test [1] is cervical cancer cells (CasKi). The test is described as follows: Radiation clonogenic survival, cervical cancer cells. Format: cell-based. On the procedure: (§1) Logarithmically growing cells were seeded into T-25 flasks at various densities to yield approximately 50-100 colonies/flask. After incubation for 24 h at 37° C., cells were treated or not with the compound at the IC50 concentration for 24 h followed by sham or irradiation at room temperature using a Mark-30 irradiator with a 137-Cs source at a fixed dose rate of 2.27 Gy/min. After 10-14 days, cells were fixed and stained with crystal violet, and colonies of more than 50 cells were counted. The surviving fractions of the treated cells were normalized to the plating efficiencies of untreated controls. Radiation survival curves were fitted by computer to the single-hit, multitarget and the linear-quadratic models.
FIGS. 17-19 illustrate the effects of drugs on radiation cologenetic survivals. Cells were pretreated with drug 24 hours prior to exposure to graded doses of gamma radiation. Compounds SP-1-161 and SP-1-303 were tested in a clonogenic survival study with cervical cancer cells (CasKi) with a protocol similar to that described in Example 12. The radiation sensitivity of cells is defined by the terminal slope of the radiation survival curve, which is referred to as D0. The steeper the slope, the smaller the value of D0 and thus the more radiation sensitive the respective cells. Alternatively, a less steep slope results in a larger D0 and a more resistant radiation response. […]

The subject of test [2] is breast cancer cells (MCF7 cells). Kind of test: Radiation clonogenic survival, breast cancer cells. The settings on record: compound at IC50 concentration for 24 h, then gamma radiation; compared with DIM. The class given is cell-based. On the procedure:
(§2) N-(6-(hydroxyamino)-6-oxohexyl)-3-methyl-1H-indole-2-carboxamide (SP-1-161) was tested against DIM in a radiation clonogenic survival study with healthy breast epithelial cells (184A1 cells) (FIG. 11A) and breast cancer cells (MCF7 cells) (FIG. 11B). After treatment with the compounds of the invention for 24 hours, the cells were exposed to graded doses of gamma radiation.
as §1
(§3) The radiation sensitivity of cells is defined by the terminal slope of the radiation survival curve, which is referred to as D0. The steeper the slope, the smaller is the value of D0, and thus the more radiation sensitive the respective cells. […]

For test [3], the system named is healthy breast epithelial cells (184A1 cells). The test is described as follows: Radiation clonogenic survival, normal breast epithelial cells. The class given is cell-based. The settings on record: compound at IC50 concentration for 24 h, then gamma radiation; compared with DIM. The method, then:
as §2, §1, §3

Test [4] has as its system ATM. The test is described as follows: ATM activation: phospho-ATM (S1981) ELISA on the nuclear fraction of MCF7 cells. Format: cell-based, Human. To be noted: 1 μM, time course of 6 hours. The method, then: Several assays were utilized to determine the ability of the compounds of the invention to activate ATM over a period of time. […] The fold change in phospho-ATM was measured over a period of time. Accordingly, the increase in phospho-ATM indicates activation of ATM by the compounds of the invention.
In certain examples, the activity of the compounds of the invention was compared to additional modulators of ATM, such as […] (a specific ATM inhibitor); dimethylsulfoxide (DMSO) (a solvent); 3,3′-diindolylmethane (DIM) (an ATM activator); and irradiation (irradiation may result in the generation of phospho-ATM due to DNA damage). DIM was not used as a comparative compound in Example 5.
Materials: MCF7 Cells; Complete RPMI media: RPMI, 10% Fetal Bovine Serum (FBS), 5% L-glutamine, 5% Pen/Strep; R&D Systems Human P-ATM (S1981) DuoSet IC ELISA Assay Kit; Plate sealers; Normal mouse serum (heat inactivated 56 C for 30 min); 96-well ELISA microtiter plate; 450 nm Plate Reader; 60 mm dishes; Disposable pipettes; Pipet-aid; Pipette tips; Micro-pipetter; Cell scraper; Distilled water; Pierce NE-PER Nuclear and Cytoplasmic Extraction Reagent; Pierce Protease and Phosphotase Inhibitor Mini Tablets; KU-55933; DIM (not used in Example 5); Dimethyl sulfoxide (DMSO); Phosphate buffered saline (PBS); and Sterile micro-tubes and conical tubes; Hemocytometer; Microscope; Micro-centrifuge.
MCF7 Cells were grown in Complete RPMI media and 10^6 cells were seeded into 60 mm dishes. Dishes were then divided into duplicate treatments the following day. Control samples were treated with 3 ml RPMI media for 1 hr. Vehicle samples were treated with 3 ml RPMI media plus 0.1% DMSO for 1 hr. Negative control samples were treated with 10 μM KU-55933 in 3 ml RPMI media plus 0.1% DMSO for 1 Hr. Positive control samples were treated with 0.5 μM DIM in 3 ml RPMI media plus 0.1% DMSO for 30 min. Test Samples were treated with 1 μM of the test compounds (e.g. N-(6-(hydroxyamino)-6-oxohexyl)-1H-indole-2-carboxamide in Example 5) in 3 ml RPMI media plus 0.1% DMSO for 30 min; 1 hr; 2 hrs; 4 hrs; and 6 hrs. At their designated time, samples were harvested on ice using a cell scraper and two washes of 1 ml PBS and kept as a cell pellet on dry ice until all were collected. After all samples were collected they were thawed on ice and separated into cytosolic and nuclear fractions using the Pierce NE-PER Nuclear and Cytoplasmic Extraction Reagent kit with added Pierce protease and phosphotase inhibitor tablet.
After recovery of the separate fractions, the process further included washing cells by suspending the cell pellet with PBS. 1-10×10^6 cells were transferred to a 1.5 mL microcentrifuge tube and a pellet was formed by centrifugation at 500×g for 2-3 minutes. […]

With `Cc1c(C(=O)NCCCCCC(=O)NO)[nH]c2ccccc12` [SP-1-161, N-(6-(hydroxyamino)-6-oxohexyl)-3-methyl-1H-indole-2-carboxamide], the “D0 (terminal slope of the radiation survival curve)” value in test [1] (CasKi cells pretreated with drug 24 hours before graded doses of gamma radiation, DMSO control D0=2.4) is listed as 1.6. In test [1] (CasKi cells, drug 24 hours before gamma radiation), the “radiation sensitization of CasKi cells (decrease of D0 with respect to control)” value was “sensitized CasKi cells”. Further, the “radiation sensitizing activity in breast cancer cells (MCF7)” value in test [2] was “demonstrated radiation sensitizing activity and further outperformed DIM”. Also, the “protection of normal cells from radiation (184A1)” value in test [3] is reported as “protected normal cells from radiation-mediated killing”. In test [4], the “ATM activation (level of ATM phosphorylation, phospho-ATM)” value is listed as “exemplary ATM activation activity”.
